Patent US6998244B1, “Cloning and expression of a novel 5-HT4 receptor” (Janssen Pharmaceutica N.V., priority 1999, dated 2006)

Legend:
human 5-HT4(a) receptor [1] = target: T1, human 5-HT4(a) receptor (Homo sapiens, UniProt Q13639); experiment: Competition with […] [3H]GR113808 binding, membranes of transfected COS-7 cells; conditions: for pKi / Ki: Human 5-HT4 a receptor in Cos-7 cells, Cheng and Prusoff
T1 construct: expressed in transfected cells; host or cells: COS-7 cells, transient transfection with a pcDNA3 construct
T1 sequence (Q13639 1-387 isoform Q13639-2): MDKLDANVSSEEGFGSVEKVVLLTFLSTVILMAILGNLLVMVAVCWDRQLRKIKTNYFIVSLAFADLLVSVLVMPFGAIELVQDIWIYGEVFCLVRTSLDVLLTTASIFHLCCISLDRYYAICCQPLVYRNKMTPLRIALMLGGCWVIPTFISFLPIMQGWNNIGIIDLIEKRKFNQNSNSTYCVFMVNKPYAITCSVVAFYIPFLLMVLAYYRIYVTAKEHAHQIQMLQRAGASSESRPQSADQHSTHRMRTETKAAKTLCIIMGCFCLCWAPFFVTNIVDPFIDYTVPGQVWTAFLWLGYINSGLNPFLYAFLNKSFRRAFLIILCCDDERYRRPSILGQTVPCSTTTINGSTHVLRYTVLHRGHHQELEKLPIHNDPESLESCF

human 5-HT4(b) receptor [2] = target: T2, human 5-HT4(b) receptor (Homo sapiens, UniProt Q13639); experiment: as above; conditions: for pKi / Ki: Human 5-HT4 b receptor in Cos-7 cells, Cheng and Prusoff
T2 construct: expressed in transfected cells; host or cells: COS-7 cells, transient transfection with a pcDNA3 construct
T2 sequence (Q13639 whole entry): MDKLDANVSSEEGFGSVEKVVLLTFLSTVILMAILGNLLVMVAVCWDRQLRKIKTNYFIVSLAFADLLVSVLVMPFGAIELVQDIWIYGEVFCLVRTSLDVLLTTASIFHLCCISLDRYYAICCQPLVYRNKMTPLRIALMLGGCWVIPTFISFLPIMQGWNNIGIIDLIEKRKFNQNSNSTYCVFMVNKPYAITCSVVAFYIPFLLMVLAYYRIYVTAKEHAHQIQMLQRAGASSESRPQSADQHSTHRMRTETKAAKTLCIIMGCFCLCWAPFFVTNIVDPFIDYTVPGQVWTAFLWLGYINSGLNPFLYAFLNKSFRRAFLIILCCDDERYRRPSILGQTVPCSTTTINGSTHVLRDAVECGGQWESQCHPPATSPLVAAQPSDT

human 5-HT4(h) receptor [3] = target: T3, human 5-HT4(h) receptor (Homo sapiens, UniProt Q13639); experiment: as above; conditions: for pKi: Human 5-HT4 h receptor in Cos-7 cells, Cheng and Prusoff
T3 sequence (Q13639 1-402 isoform Q13639-6): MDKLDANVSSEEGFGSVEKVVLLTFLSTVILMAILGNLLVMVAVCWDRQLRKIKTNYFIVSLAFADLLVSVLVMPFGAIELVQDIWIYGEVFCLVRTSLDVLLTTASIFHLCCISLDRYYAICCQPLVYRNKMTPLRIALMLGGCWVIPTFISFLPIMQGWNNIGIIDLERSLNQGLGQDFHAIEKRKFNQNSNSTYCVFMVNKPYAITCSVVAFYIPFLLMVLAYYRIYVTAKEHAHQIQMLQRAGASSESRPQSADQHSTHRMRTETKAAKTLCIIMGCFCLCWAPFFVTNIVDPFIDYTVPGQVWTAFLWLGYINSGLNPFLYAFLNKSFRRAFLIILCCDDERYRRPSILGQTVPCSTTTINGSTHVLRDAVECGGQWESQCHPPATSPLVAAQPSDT
Experimental: Results are the mean of three independent experiments from three different transfections.
COS-7 cells were grown in DMEM supplemented with 10% fetal calf serum. A large scale plasmid preparation of 5-HT4(h)/pcDNA3 was made using the Qiagen large scale plasmid preparation kit.
The transfected COS-7 cells were cultured on 150 mm Petri dishes and washed twice with ice-cold phosphate-buffered saline. The cells were then scrapped from the plates with a cell scraper, suspended in 50 mM Tris-HCl buffer, pH 7.4, and harvested by centrifugation for 10 min at 16000 g. The pellet was resuspended in 5 mM Tris-HCl, pH 7.4, and homogenized with an Ultra Turax homogenizer; the resulting membranes were collected by centrifugation for 20 min at 25000 g. Membranes were stored at −70° C. in 50 mM Tris-HCl buffer, pH 7.4, at a protein concentration of 1 mg/ml. The Bradford protein assay was used for protein determination with bovine serum albumin as a standard.
The mixture was incubated 1 hour at 25° C.

human 5-HT4(a) receptor [4] = target: T1, human 5-HT4(a) receptor; experiment: cAMP formation in transiently transfected COS-7 cells (flashplate assay); assay type: cell-based; conditions: 5-HT4 variant a, n = 5, cAMP formation
Experimental: (§1) Results represent the increase of cAMP after stimulation by agonist since basal level has been removed. […] The efficacy and potency of the different agonists to trigger the cellular response was estimated and compared for the three different variants.
(§2) These experiments were done using the NEN adenylyl cyclase activation flashplate assay, according to the supplier. Cells were removed from the Petri dishes with 3 ml EDTA (0.04% w/v) and resuspended with phosphate buffered saline without Ca^2+ and Mg^2+. The cells were centrifuged at 1500 g for 5 minutes and the supernatants were removed. The pellet was resuspend in stimulation buffer and diluted to a concentration of 10^6 cells/ml, 50 μl thereof were added per well of the flashplate (50000 cells/well). Compounds were diluted in PBS containing 1 mM pargyline and 1 mM paroxetine, and 50 μl of the resulting mixture was added per well, followed by an incubation for 20 minutes at 370° C. […] After incubation for 24 h at room temperature, counting was done in a Topcount (Packard).

human 5-HT4(b) receptor [5] = target: T2, human 5-HT4(b) receptor; experiment: as above; assay type: cell-based; conditions: 5-HT4 variant b, n = 8, cAMP formation
Experimental: as §1, §2

[6] = test system: COS-7 cells transfected with the empty vector; experiment: cAMP assay, negative control cells; assay type: cell-based; conditions: stimulation with 10^−6 M of each agonist
Excerpt: as §1, with “variants. […] No difference in the pEC50 was noticed. The cAMP assay has been performed also for COS-7 cells transfected with the empty vector as a negative control.” for “variants.”
These experiments were done using the NEN adenylyl cyclase activation flashplate assay, according to the supplier. Cells were removed from the Petri dishes with 3 ml EDTA (0.04% w/v) and resuspended with phosphate buffered saline without Ca^2+ and Mg^2+. The cells were centrifuged at 1500 g for 5 minutes and the supernatants were removed. The pellet was resuspend in stimulation buffer and diluted to a concentration of 10^6 cells/ml, 50 μl thereof were added per well of the flashplate (50000 cells/well). Compounds were diluted in PBS containing 1 mM pargyline and 1 mM paroxetine, and 50 μl of the resulting mixture was added per well, followed by an incubation for 20 minutes at […]. […] The experiment was stopped and a direct cAMP[^125I] detection assay was performed by adding 100 μl of detection mix per well. After incubation for 24 h at room temperature, counting was done in a Topcount (Packard).

human 5-HT4(h) receptor [7] = target: T3, human 5-HT4(h) receptor; experiment: cAMP formation in transiently transfected COS-7 cells (flashplate assay); assay type: cell-based; design: expressed in transfected cells; host or cells: COS-7 cells, transient transfection with 5-HT4(h)/pcDNA3
Experimental: as §1, §2

5-HT4(a) variant = target: T4, 5-HT4(a) variant (Homo sapiens, UniProt Q13639); experiment: Radioligand saturation binding, membranes of transfected COS-7 cells
T4 construct: expressed in transfected cells; host or cells: COS-7 cells, transient transfection with a pcDNA3 construct
T4 sequence (Q13639 1-387 isoform Q13639-2): as the sequence (Q13639 1-387 isoform Q13639-2) above
Excerpt: (§3) In order to compare the pharmacological properties of the 5-HT4(h) variant with those of the previously cloned 5-HT4(a) and b variant, the three corresponding pcDNA3 expression constructs were transiently transfected into COS cells. The receptors were investigated by radioligand binding assays on membrane preparations.

5-HT4(b) variant = target: T5, 5-HT4(b) variant (Homo sapiens, UniProt Q13639); experiment: as above
T5 construct: expressed in transfected cells; host or cells: COS-7 cells, transient transfection with a pcDNA3 construct
Excerpt: as §3

h 5-HT4(h) = target: T6, h 5-HT4(h) (Homo sapiens, UniProt Q13639); experiment: as above; conditions: h variant, 3 independent transfections
T6 construct: expressed in transfected cells; host or cells: COS-7 cells, transient transfection with 5-HT4(h)/pcDNA3
T6 sequence (Q13639 1-402 isoform Q13639-6): as the sequence (Q13639 1-402 isoform Q13639-6) above
Excerpt: as §3

[8] = test system: COS-7 cells transfected with the vector alone; experiment: Radioligand binding, negative control cells; conditions: 3 independent transfections
Excerpt: The same result was obtained for the Bmax values found for the high affinity sites of the 2 reference 5-HT receptor variants a and b. […] Results are the mean of three independent transfections.

[9] = 5-HT4 variant h, n = 3, cAMP formation

Compound | pKi (human 5-HT4(a) receptor [1]) | pKi (human 5-HT4(b) receptor [2]) | pKi (human 5-HT4(h) receptor [3]) | % of 5HT max (+/− SD) (human 5-HT4(a) receptor [4]) [%] | % of 5HT max (+/− SD) (human 5-HT4(b) receptor [5]) [%] | increase of the cAMP basal level [6] | % of 5HT max (+/− SD) (human 5-HT4(h) receptor [7]; [9]) [%] | other results
COc1ccc2[nH]cc(CCN)c2c1 [5-MeOT] | 6.08 | 6.13 | 6.1 | – | – | – | – | –
NCCc1c[nH]c2ccc(O)cc12 [5HT, 5-hydroxytryptamine] | – | – | – | 100 | 100 | no significant increase | 100 | –
COc1cc(N)c(Cl)cc1C(=O)NC1CCN(CCCOc2ccc(F)cc2)CC1OC (stereo not drawn) [Cisapride] | – | – | – | – | – | no significant increase | – | –
Cn1cc(C(=O)OCC2CCN(CCNS(C)(=O)=O)CC2)c2ccccc21 [GR113808] | 9.54 | 9.57 | 9.29 | 0 | 0 | – | 54.6 | pEC50 (+/1 SD) (human 5-HT4(h) receptor [7]; [9]): 7.95; effect at the 5-HT4(h) variant (agonist/antagonist) (human 5-HT4(h) receptor [7]; in words): agonistic effect
CCOc1cc(N)c(Cl)cc1C(=O)NCC1CN(Cc2ccc(F)cc2)CCO1 (stereo not drawn) [Mosapride] | – | – | – | – | – | – | – | IC50 (human 5-HT4(a) receptor [1]): 331 nM; Ki (human 5-HT4(a) receptor [1]): 195 nM; IC50 (human 5-HT4(b) receptor [2]): 912 nM; Ki (human 5-HT4(b) receptor [2]): 661 nM; IC50 (human 5-HT4(h) receptor [3]): 282 nM; Ki (human 5-HT4(h) receptor [3]): 141 nM
COCCCN1CCC(NC(=O)c2cc(Cl)c(N)c3c2OCC3)CC1 [Prucalopride] | – | – | – | 118 | 117.36 | no significant increase | 95 | –
CCCCN1CCC(COC(=O)c2cc(Cl)c(N)c3c2OCCO3)CC1 [SB204070] | 10.15 | 10.04 | 10.38 | – | – | – | – | –
CCCCCNC(=N)N/N=C/c1c[nH]c2ccc(OC)cc12 [SDZ-HTF919] | – | – | – | – | – | – | – | IC50 (human 5-HT4(a) receptor [1]): 8.32 nM; Ki (human 5-HT4(a) receptor [1]): 13.8 nM; IC50 (human 5-HT4(b) receptor [2]): 12.9 nM; Ki (human 5-HT4(b) receptor [2]): 8.13 nM; IC50 (human 5-HT4(h) receptor [3]): 35.5 nM; Ki (human 5-HT4(h) receptor [3]): 25.7 nM
Cn1cc(C(=O)OCC2CCN(CCNS(C)(=O)=O)CC2)c2ccccc21 [[^3H]GR113808] | – | – | – | – | – | – | – | Kd (5-HT4(a) variant): 0.14 nM; Kd (5-HT4(b) variant): 0.19 nM; Kd (h 5-HT4(h)): 0.24 nM; specific binding [8]: no specific binding
